The results in this text go back to patent US20070167456A1, “Mercaptoimidazoles as ccr2 receptor antagonists” (priority 2004, published 2007).

One series deals with T1, CCR2 receptor (Homo sapiens, UniProt P41597).
T1 construct: host or cells: THP-1 (human monocytic cell line)
T1 sequence (P41597 1-360 isoform P41597-2): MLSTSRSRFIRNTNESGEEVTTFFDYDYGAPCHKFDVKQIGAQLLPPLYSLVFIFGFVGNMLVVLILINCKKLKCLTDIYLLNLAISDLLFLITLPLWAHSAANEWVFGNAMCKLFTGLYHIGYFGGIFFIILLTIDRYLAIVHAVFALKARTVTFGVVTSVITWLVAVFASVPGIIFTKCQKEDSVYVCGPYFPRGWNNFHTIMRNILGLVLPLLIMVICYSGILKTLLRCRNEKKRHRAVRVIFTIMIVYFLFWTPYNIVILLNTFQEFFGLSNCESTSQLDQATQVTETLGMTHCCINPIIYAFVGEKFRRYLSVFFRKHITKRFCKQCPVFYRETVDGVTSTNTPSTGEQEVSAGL
Briefly: Inhibition of MCP-1 induced Ca-flux in human THP-1 cells. The format is cell-based. To be noted: inhibition of specific MCP-1 induced Ca2+ flux, 10^-7 M hMCP-1, 20 minutes pre-incubation, FLIPR, Fluo-3 AM. The procedure:
Inhibition of MCP-1 Induced Ca-flux in Human THP-1 Cells
MCP-1 binding to the CCR2 receptor induces a rapid and transient intracellular release of Ca^2+ (secondary messenger) in several cell lines (Charo et al, PNAS 1994). Free Ca^2+ levels can be measured using a Ca^2+ sensitive dye. When the CCR2 receptor is blocked with a CCR2 receptor antagonist, the MCP-1 induced release of Ca^2+ is inhibited.
Human THP-1 cells (monocytic cell line, ATCC TIB-202) were cultured in RPMI 1640 medium supplemented with 10% fetal calf serum (FCS), 1% L-Glutamine, penicillin (50 U/ml) and streptomycin (50 μg/ml) (all GIBCO BRL, Gent). After centrifugation, cells were loaded for 30 minutes with the Ca^2+ sensitive fluorescent dye Fluo-3 AM (Molecular Probes, Leiden, Netherlands) (2 million cells/ml in RPMI medium containing 4 μM Fluo-3 AM, 20 mM HEPES, 0.1% Bovine Serum Albumin (BSA) and 5 mM probenecid). Excess dye was removed by 3-fold washing with buffer (5 mM HEPES, 140 mM NaCl, 1 mM MgCl2, 5 mM KCl, 10 mM glucose, 2.5 mM probenecid, 1.25 mM CaCl2, 0.1% BSA; all further incubations were done in this buffer). Cells were plated at a density of 150 000 cells/well in dark-wall 96-well plates (Costar, Cambridge, Mass.) and sedimented by centrifugation (1 minute). The cells were pre-incubated for 20 minutes with test compound. Then, 10^−7 M hMCP-1 (Bachem, Bubendorf, Switserland) was added. Changes in intracellular free Ca^2+ concentration were measured using the Fluorescent Imaging Plate Reader (FLIPR, Molecular Devices, Munchen, Germany). Fluorescence was recorded every second from 10 seconds before the addition of the MCP-1 till 2 minutes after the addition (first minute: 60 records with 1 second intervals, second minute 20 records with 3 second intervals). The maximal fluorescence obtained during this time frame was used for further calculations.
Table 3 reports pIC50 values obtained in the above-described test for compounds of formula (I). pIC50 defines −log IC50 wherein IC50 is the molar concentration of the test compound which inhibits 50% of specific MCP-1 induced Ca^2+ flux.
(Calcium flux is commonly read through the fluorescence of an indicator in the cells.)

By IC50 is commonly meant the concentration needed to halve the response being measured. Higher therefore signals lower potency. With `CCC(c1ccc(Cl)c(Cl)c1)n1c(C(=O)OC)c(NC(=O)C2CCOC2)[nH]c1=S` (stereo not drawn) [Compound 13], inhibition against CCR2 receptor was half-maximal at 79.4 nM (IC50).

Turning to `CCC(c1ccc(Cl)c(Cl)c1)n1c(C(=O)OC)c(NC(=O)c2ccncc2)[nH]c1=S` (stereo not drawn) [Compound 6], the IC50 against CCR2 receptor is 126 nM.

For the molecule `CCC(c1ccc(Cl)c(Cl)c1)n1c(C(=O)OC)c(NC(=O)N2CCCCC2)[nH]c1=S` (stereo not drawn) [Compound 23], at CCR2 receptor, the IC50 was 158 nM.

On CCR2 receptor, `CCC(c1ccc(Cl)c(Cl)c1)n1c(C(=O)OC)c(NC(=O)NCc2ccccc2)[nH]c1=S` (stereo not drawn) [Compound 17] showed an IC50 of 631 nM.

Regarding `CCC(c1ccc(Cl)c(Cl)c1)n1c(C(=O)OC)c(NC(=O)OC)[nH]c1=S` (stereo not drawn) [Compound 15], the IC50 at CCR2 receptor is 15.8 nM.

In turn, `CCC(c1ccc(Cl)c(Cl)c1)n1c(C(=O)OC)c(NC(=O)c2ccccn2)[nH]c1=S` (stereo not drawn) [Compound 12] had an IC50 against CCR2 receptor of 39.8 nM.

For the molecule `CCC(c1ccc(Cl)c(Cl)c1)n1c(C(=O)OC)c(NC(C)=O)[nH]c1=S` (stereo not drawn) [Compound 2], the IC50 on CCR2 receptor is 50.1 nM.

For `CCC(c1ccc(Cl)c(Cl)c1)n1c(C(=O)OC)c(NC(=O)C2CCCO2)[nH]c1=S` (stereo not drawn) [Compound 19], the IC50 against CCR2 receptor is 79.4 nM.

With `CCC(c1ccc(Cl)c(Cl)c1)n1c(C(=O)OC)c(NC(=O)N2CCN(Cc3ccccc3)CC2)[nH]c1=S` (stereo not drawn) [Compound 22], the IC50 against CCR2 receptor was 398 nM.

In general, melting point refers to the temperature, or range, at which the solid turns liquid. As to `CCC(c1ccc(Cl)c(Cl)c1)n1c(C(=O)OC)c(N)[nH]c1=S` (stereo not drawn) [Compound 1], the melting point is 183.9 to 184 °C. For the same molecule, 63.1 nM corresponded to half-maximal inhibition against CCR2 receptor (IC50).

The molecule `CCC(c1ccc(Cl)c(Cl)c1)n1c(C(=O)OC)c(NC(=O)c2cncnc2)[nH]c1=S` (stereo not drawn) [Compound 9] gave an IC50 at CCR2 receptor of 200 nM.

With `CCC(c1ccc(Cl)c(Cl)c1)n1c(C(=O)OC)c(NC(=O)c2nonc2C)[nH]c1=S` (stereo not drawn) [Compound 8], the IC50 against CCR2 receptor was 501 nM.

Consider `CCC(c1ccc(Cl)c(Cl)c1)n1c(C(=O)OC)c(NC(=O)c2ccco2)[nH]c1=S` (stereo not drawn) [Compound 11], for which half-maximal inhibition against CCR2 receptor (IC50) required 25.1 nM.

For `CCC(c1ccc(Cl)c(Cl)c1)n1c(C(=O)OC)c(NC(=O)c2ccccc2)[nH]c1=S` (stereo not drawn) [Compound 10], the IC50 at CCR2 receptor was 200 nM.

On CCR2 receptor, `CCC(c1ccc(Cl)c(Cl)c1)n1c(C(=O)OC)c(NC(=O)N2CCN(C)CC2)[nH]c1=S` (stereo not drawn) [Compound 20] had an IC50 of 316 nM.

Molecule `CCC(c1ccc(Cl)c(Cl)c1)n1c(C(=O)OC)c(NC(=O)c2cccnc2)[nH]c1=S` (stereo not drawn) [Compound 5] showed an IC50 on CCR2 receptor of 200 nM.

Take `CCC(c1ccc(Cl)c(Cl)c1)n1c(C(=O)OC)c(NC(=O)N2CCCC2)[nH]c1=S` (stereo not drawn) [Compound 21]: the IC50 on CCR2 receptor is 126 nM.

Regarding `CCC(c1ccc(Cl)c(Cl)c1)n1c(C(=O)OC)c(NC(=O)c2cnccn2)[nH]c1=S` (stereo not drawn) [Compound 3], the melting point fell in the range of 196.9 to 198.6 °C. Besides, the IC50 at CCR2 receptor was 79.4 nM.

The molecule `CCC(c1ccc(Cl)c(Cl)c1)n1c(C(=O)OC)c(NC(=O)c2cc(C)on2)[nH]c1=S` (stereo not drawn) [Compound 7] showed an IC50 against CCR2 receptor of 158 nM.

On CCR2 receptor, `CCC(c1ccc(Cl)c(Cl)c1)n1c(C(=O)OC)c(NC(=O)NCC(OC)OC)[nH]c1=S` (stereo not drawn) [Compound 16] showed an IC50 of 251 nM.

As for `CCC(c1ccc(Cl)c(Cl)c1)n1c(C(=O)OC)c(NC(=O)N2CCOCC2)[nH]c1=S` (stereo not drawn) [Compound 18], inhibition on CCR2 receptor was half-maximal at 100 nM (IC50). This IC50 is about 2.5-fold lower than that of the molecule before.

Turning to `CCC(=O)Nc1[nH]c(=S)n(C(CC)c2ccc(Cl)c(Cl)c2)c1C(=O)OC` (stereo not drawn) [Compound 4], the IC50 on CCR2 receptor is 126 nM. The IC50 values of the last two molecules are within 1.5-fold of each other.
